Several values for one entry are separate records, joined by “and”; a condition that tells them apart may be missing. Equal values may be shown once.
Columns and labels:
Test in all cases: Capturing ability analysis, peptide-bonded magnetic beads mixed with cells
Type in all cases: cell-based
[1] = system: human in situ pancreatic cancer cells (BxPC-3); details: human in situ pancreatic cancer cell (BxPC-3); 2×10^5 cells, room temperature, 25 rpm 30 minutes
Source text: (§1) In one embodiment, the peptide sequences of Seq ID: NO. 1 to Seq ID: NO. 3 are respectively bonded to the beads and mixed with different cell lines , respectively, including colorectal cancer cells (HCT-8), colorectal cancer stem cells (CR-CSC), human hepatoma cells (HepG2), human in situ pancreatic cancer cells (BxPC-3), human lung adenocarcinoma cells (A549) and human breast cancer cells (MCF7). Wherein, the beads having peptide sequences are mixed with each cell line at room temperature for 25 rpm 30 minutes, and the cell number of each cell line is 2×10^5. After washing for several times, the number of cells captured with magnetic beads having the above peptide sequences are calculated and the results are shown as Table 1 below.

[2] = system: human lung adenocarcinoma cells (A549); details: human lung adenocarcinoma cell (A549); 2×10^5 cells, room temperature, 25 rpm 30 minutes
Source text: as §1

[3] = system: colorectal cancer stem cells (CR-CSC); details: colorectal cancer stem cell (CR-CSC); 2×10^5 cells, room temperature, 25 rpm 30 minutes
Source text: as §1

[4] = system: human hepatoma cells (HepG2); details: human hepatoma cell (HepG2); 2×10^5 cells, room temperature, 25 rpm 30 minutes
Source text: as §1

[5] = system: colorectal cancer cells (HCT-8); details: colorectal cancer cell (HCT-8); 2×10^5 cells, room temperature, 25 rpm 30 minutes
Source text: as §1

[6] = system: human breast cancer cells (MCF7); details: human breast cancer cell (MCF7); 2×10^5 cells, room temperature, 25 rpm 30 minutes
Source text: as §1

Substance | Capturing ability (%) [1] | Capturing ability (%) [2] | Capturing ability (%) [3] | Capturing ability (%) [4] | Capturing ability (%) [5] | Capturing ability (%) [6]
Seq ID: NO. 1: peptide sequence screened from M13 phage display peptide library, having binding specificity and affinity to HCT-8 or CR-CSC (AELAKLPLF) | 3.41 ± 1.14% | 28.51 ± 7.09% | 22.97 ± 4.29% | 23.60 ± 3.50% | 43.30% and 43.40 ± 7.23% | 12.84 ± 7.67%
Seq ID: NO. 2: peptide sequence screened from M13 phage display peptide library, having binding specificity and affinity to HCT-8 or CR-CSC (GAISFDHVHP) | 3.13 ± 0.62% | 34.29 ± 5.22% | 20.85 ± 0.61% | 23.02 ± 2.77% | 45.16% and 45.16 ± 7.12% | 20.45 ± 4.04%
Seq ID: NO. 3: peptide sequence screened from M13 phage display peptide library, having binding specificity and affinity to HCT-8 or CR-CSC (MNAKWPIENLMN) | 3.58 ± 1.18% | 16.77 ± 6.49% | 49.79% and 49.79 ± 5.34% | 17.87 ± 6.18% | 9.42 ± 2.67% | 10.68 ± 5.08%

From patent US20160153997A1, “OLIGOPEPTIDE SPECIFIC TO COLORECTAL CANCER CELL AND APPLICATION THEREOF” (National Tsing Hua University, priority 2014, published 2016)
